This passage reports inhibition results from paper PMC4440585 (Biochemistry, 2015).

This experiment has as its target mitochondrial complex I (Rattus norvegicus, UniProt A6K8N6+P03889+Q641Y2). The experiment can be described thus: NADH oxidation at […] nm, NADH:ubiquinone-1 activity of solubilized mitochondria. The format is biochemical. The note with it: read-out: % inhibition at 25 mM.

For `CN(C)C(=N)NC(=N)N` [metformin], the inhibition at 25000 µM was determined as 12.1%.
